Assay results published in patent US20250388604A1, “Compounds and Their Use as PDE4 Activators” (Mironid Limited, priority 2022, published 2025).

Test system: m-IMCD3 cells
Experiment: Inhibition of PGE2-stimulated in vitro cyst formation in m-IMCD3 cells
Type: cell-based, mouse
Conditions: Mus musculus, mIMCD3, 144 h, 3 μM; mean cyst area, 100% for (DMSO + PGE2) and 0% for DMSO control; 6 days of culture; read-out: % Cyst area after incubation with 3 μM test compound
Summary of the method: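 Mean cyst area after 6 days, expressed relative to DMSO+PGE2 (100%) and DMSO alone (0%), from z-stack images. Mouse m-IMCD3 spheroids grew in collagen I/Matrigel gels and received PGE2 (100 nM final) with test compound (0.1% DMSO) starting 18–24 h post-plating, media refreshed at day 2 or 3.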

| Compound | activity at 3 µM [%] |
| --- | --- |
| COCc1ccccc1C(=O)N1CCc2nc(N3C4CCC3CNC4)sc2C1 [Example 214, (2-(3,8-diazabicyclo[3.2.1]octan-8-yl)-6,7-dihydrothiazolo[5,4-c]pyridin-5(4H)-yl)(2-(methoxymethyl)phenyl)methanone] | 54 |
| CC(C)c1ccccc1C(=O)N1CCc2nc(N3C4CCC3CNC4)sc2C1 [Example 215, (2-(3,8-diazabicyclo[3.2.1]octan-8-yl)-6,7-dihydrothiazolo[5,4-c]pyridin-5(4H)-yl)(2-isopropylphenyl)methanone] | 7 |
| Cc1cc(F)ccc1C(=O)N1CCc2nc(N3C4CCC3CNC4)sc2C1 [Example 216, (2-(3,8-diazabicyclo[3.2.1]octan-8-yl)-6,7-dihydrothiazolo[5,4-c]pyridin-5(4H)-yl)(4-fluoro-2-methylphenyl)methanone] | -3 |
| O=C(c1cccc2c1OCCC2)N1CCc2nc(N3C4CCC3CNC4)sc2C1 [Example 217, (2-(3,8-diazabicyclo[3.2.1]octan-8-yl)-6,7-dihydrothiazolo[5,4-c]pyridin-5(4H)-yl)(chroman-8-yl)methanone] | -3 |
| O=C(c1ccccc1C(F)F)N1CCc2nc(N3C4CCC3CNC4)sc2C1 [Example 218, (2-(3,8-diazabicyclo[3.2.1]octan-8-yl)-6,7-dihydrothiazolo[5,4-c]pyridin-5(4H)-yl)(2-(difluoromethyl)phenyl)methanone] | 11 |
| COc1cc(C)ccc1C(=O)N1CCc2nc(N3C4CCC3CNC4)sc2C1 [Example 219, (2-(3,8-diazabicyclo[3.2.1]octan-8-yl)-6,7-dihydrothiazolo[5,4-c]pyridin-5(4H)-yl)(2-methoxy-4-methylphenyl)methanone] | 11 |
| O=C(c1ccccc1C1CC1)N1CCc2nc(N3C4CCC3CNC4)sc2C1 [Example 220, (2-(3,8-diazabicyclo[3.2.1]octan-8-yl)-6,7-dihydrothiazolo[5,4-c]pyridin-5(4H)-yl)(2-cyclopropylphenyl)methanone] | -5 |
| O=C(c1ccc(Cl)nc1)N1CCc2nc(N3C4CCC3CNC4)sc2C1 [Example 221, (2-(3,8-diazabicyclo[3.2.1]octan-8-yl)-6,7-dihydrothiazolo[5,4-c]pyridin-5(4H)-yl)(6-chloropyridin-3-yl)methanone] | 0 |
| COc1cc(F)ccc1C(=O)N1CCc2nc(N3C4CCC3CNC4)sc2C1 [Example 222, (2-(3,8-diazabicyclo[3.2.1]octan-8-yl)-6,7-dihydrothiazolo[5,4-c]pyridin-5(4H)-yl)(4-fluoro-2-methoxyphenyl)methanone] | 4 |
| CC(F)(F)c1ccccc1C(=O)N1CCc2nc(N3C4CCC3CNC4)sc2C1 [Example 223, (2-(3,8-diazabicyclo[3.2.1]octan-8-yl)-6,7-dihydrothiazolo[5,4-c]pyridin-5(4H)-yl)(2-(1,1-difluoroethyl)phenyl)methanone] | 14 |
| O=C(c1cccnc1Cl)N1CCc2nc(N3C4CCC3CNC4)sc2C1 [Example 224, (2-(3,8-diazabicyclo[3.2.1]octan-8-yl)-6,7-dihydrothiazolo[5,4-c]pyridin-5(4H)-yl)(2-chloropyridin-3-yl)methanone] | 22 |
| Cc1ccc(C(=O)N2CCc3nc(N4C5CCC4CNC5)sc3C2)c(C)c1 [Example 225, (2-(3,8-diazabicyclo[3.2.1]octan-8-yl)-6,7-dihydrothiazolo[5,4-c]pyridin-5(4H)-yl)(2,4-dimethylphenyl)methanone] | -1 |
| O=C(c1ccc(C2CC2)cc1)N1CCc2nc(N3C4CCC3CNC4)sc2C1 [Example 228, (2-(3,8-diazabicyclo[3.2.1]octan-8-yl)-6,7-dihydrothiazolo[5,4-c]pyridin-5(4H)-yl)(4-cyclopropylphenyl)methanone] | -6 |
| O=C(c1ccc(C(F)F)cc1)N1CCc2nc(N3C4CCC3CNC4)sc2C1 [Example 229, (2-(3,8-diazabicyclo[3.2.1]octan-8-yl)-6,7-dihydrothiazolo[5,4-c]pyridin-5(4H)-yl)(4-(difluoromethyl)phenyl)methanone] | -1 |
| O=C(c1cccc2c1OCC2)N1CCc2nc(N3C4CCC3CNC4)sc2C1 [Example 230, (2-(3,8-diazabicyclo[3.2.1]octan-8-yl)-6,7-dihydrothiazolo[5,4-c]pyridin-5(4H)-yl)(2,3-dihydrobenzofuran-7-yl)methanone] | 22 |
| O=C(c1ccc(CC(F)(F)F)cc1)N1CCc2nc(N3C4CCC3CNC4)sc2C1 [Example 232, (2-(3,8-diazabicyclo[3.2.1]octan-8-yl)-6,7-dihydrothiazolo[5,4-c]pyridin-5(4H)-yl)(4-(2,2,2-trifluoroethyl)phenyl)methanone] | 5 |
| O=C(c1cccc2c1OC(F)(F)O2)N1CCc2nc(N3C4CCC3CNC4)sc2C1 [Example 233, (2-(3,8-diazabicyclo[3.2.1]octan-8-yl)-6,7-dihydrothiazolo[5,4-c]pyridin-5(4H)-yl)(2,2-difluorobenzo[d][1,3]dioxol-4-yl)methanone] | -2 |

| Compound | activity at 3 µM [%] |
| --- | --- |
| O=C(c1cccc2c1OCO2)N1CCc2nc(N3C4CCC3CNC4)sc2C1 [Example 234, (2-(3,8-diazabicyclo[3.2.1]octan-8-yl)-6,7-dihydrothiazolo[5,4-c]pyridin-5(4H)-yl)(benzo[d][1,3]dioxol-4-yl)methanone] | 1 |
| O=C(c1cccc(F)c1)N1CCc2nc(N3C4CCC3CNC4)sc2C1 [Example 235, (2-(3,8-diazabicyclo[3.2.1]octan-8-yl)-6,7-dihydrothiazolo[5,4-c]pyridin-5(4H)-yl)(3-fluorophenyl)methanone] | -3 |
| O=C(c1cccc2c1CCO2)N1CCc2nc(N3C4CCC3CNC4)sc2C1 [Example 236, (2-(3,8-diazabicyclo[3.2.1]octan-8-yl)-6,7-dihydrothiazolo[5,4-c]pyridin-5(4H)-yl)(2,3-dihydrobenzofuran-4-yl)methanone] | 27 |
| O=C(c1cccc2cccnc12)N1CCc2nc(N3C4CCC3CNC4)sc2C1 [Example 237, (2-(3,8-diazabicyclo[3.2.1]octan-8-yl)-6,7-dihydrothiazolo[5,4-c]pyridin-5(4H)-yl)(quinolin-8-yl)methanone] | 37 |
| Cc1ccc(C(=O)N2CCc3nc(N4C5CCC4CNC5)sc3C2)c(C#N)c1 [Example 238, 2-(2-(3,8-diazabicyclo[3.2.1]octan-8-yl)-4,5,6,7-tetrahydrothiazolo[5,4-c]pyridine-5-carbonyl)-5-methylbenzonitrile] | 5 |
| N#Cc1ccc(C(=O)N2CCc3nc(N4C5CCC4CNC5)sc3C2)cc1 [Example 239, 4-(2-(3,8-diazabicyclo[3.2.1]octan-8-yl)-4,5,6,7-tetrahydrothiazolo[5,4-c]pyridine-5-carbonyl)benzonitrile] | -2 |
| COc1nc(F)ccc1C(=O)N1CCc2nc(N3C4CCC3CNC4)sc2C1 [Example 240, (2-(3,8-diazabicyclo[3.2.1]octan-8-yl)-6,7-dihydrothiazolo[5,4-c]pyridin-5(4H)-yl)(6-fluoro-2-methoxypyridin-3-yl)methanone] | -3 |
| Cc1cc(F)ncc1C(=O)N1CCc2nc(N3C4CCC3CNC4)sc2C1 [Example 242, (2-(3,8-diazabicyclo[3.2.1]octan-8-yl)-6,7-dihydrothiazolo[5,4-c]pyridin-5(4H)-yl)(6-fluoro-4-methylpyridin-3-yl)methanone] | 29 |
| O=C(c1ccc(C(F)F)nc1)N1CCc2nc(N3C4CCC3CNC4)sc2C1 [Example 243, (2-(3,8-diazabicyclo[3.2.1]octan-8-yl)-6,7-dihydrothiazolo[5,4-c]pyridin-5(4H)-yl)(6-(difluoromethyl)pyridin-3-yl)methanone] | 10 |
| O=C(Oc1ccccc1)N1CCc2nc(N3C4CCC3CNC4)sc2C1 [Example 247, phenyl 2-(3,8-diazabicyclo[3.2.1]octan-8-yl)-6,7-dihydrothiazolo[5,4-c]pyridine-5(4H)-carboxylate] | 18 |
| COC(C(=O)N1CCc2nc(N3C4CCC3CNC4)sc2C1)C1(C)CCCC1 (stereo not drawn) [Example 249, 1-(2-(3,8-diazabicyclo[3.2.1]octan-8-yl)-6,7-dihydrothiazolo[5,4-c]pyridin-5(4H)-yl)-2-methoxy-2-(1-methylcyclopentyl)ethan-1-one] | -5 |
| O=C(COc1ccccc1OCCO)N1CCc2nc(N3C4CCC3CNC4)sc2C1 [Example 250, 1-(2-(3,8-diazabicyclo[3.2.1]octan-8-yl)-6,7-dihydrothiazolo[5,4-c]pyridin-5(4H)-yl)-2-(2-(2-hydroxyethoxy)phenoxy)ethan-1-one] | 17 |
| O=C(N1CCc2nc(N3C4CCC3CNC4)sc2C1)C(F)(F)c1ccnc(F)c1 [Example 251, 1-(2-(3,8-diazabicyclo[3.2.1]octan-8-yl)-6,7-dihydrothiazolo[5,4-c]pyridin-5(4H)-yl)-2,2-difluoro-2-(2-fluoropyridin-4-yl)ethan-1-one] | -6 |
| COc1cc(F)cc(C#N)c1OCC(=O)N1CCc2nc(N3C4CCC3CNC4)sc2C1 [Example 253, 2-(2-(2-(3,8-diazabicyclo[3.2.1]octan-8-yl)-6,7-dihydrothiazolo[5,4-c]pyridin-5(4H)-yl)-2-oxoethoxy)-5-fluoro-3-methoxybenzonitrile] | -4 |
| CC(C)C(O)C(=O)N1Cc2sc(N3C4CCC3CNC4)nc2C(C)(C)C1 (stereo not drawn) [Example 259, 1-(2-(3,8-diazabicyclo[3.2.1]octan-8-yl)-7,7-dimethyl-6,7-dihydrothiazolo[5,4-c]pyridin-5(4H)-yl)-2-hydroxy-3-methylbutan-1-one] | -6 |
| CC1(C)CN(C(=O)[C@H](O)C2CCCC2)Cc2sc(N3C4CCC3CNC4)nc21 [Example 262, (2R)-1-(2-(3,8-diazabicyclo[3.2.1]octan-8-yl)-7,7-dimethyl-6,7-dihydrothiazolo[5,4-c]pyridin-5(4H)-yl)-2-cyclopentyl-2-hydroxyethan-1-one] | 23 |
